Experimental data: PMC5177629, “Selective Estrogen Receptor Modulators: Cannabinoid Receptor Inverse Agonists with Differential CB1 and CB2 Selectivity” (Frontiers in Pharmacology, 2016)
Read-outs that look alike come from different tables or passages of the source. Marks after values point to notes of the source that are not given here.

Tests used:
[1] = molecular target: T1, human cannabinoid type-1 receptors (hCB1) (Homo sapiens, UniProt P21554); test: Competition receptor binding with [3H]CP-55,940, CHO-hCB1 membranes
T1 construct: host or cells: CHO cells (CHO-hCB1), membranes or intact cells
T1 sequence (P21554 whole entry): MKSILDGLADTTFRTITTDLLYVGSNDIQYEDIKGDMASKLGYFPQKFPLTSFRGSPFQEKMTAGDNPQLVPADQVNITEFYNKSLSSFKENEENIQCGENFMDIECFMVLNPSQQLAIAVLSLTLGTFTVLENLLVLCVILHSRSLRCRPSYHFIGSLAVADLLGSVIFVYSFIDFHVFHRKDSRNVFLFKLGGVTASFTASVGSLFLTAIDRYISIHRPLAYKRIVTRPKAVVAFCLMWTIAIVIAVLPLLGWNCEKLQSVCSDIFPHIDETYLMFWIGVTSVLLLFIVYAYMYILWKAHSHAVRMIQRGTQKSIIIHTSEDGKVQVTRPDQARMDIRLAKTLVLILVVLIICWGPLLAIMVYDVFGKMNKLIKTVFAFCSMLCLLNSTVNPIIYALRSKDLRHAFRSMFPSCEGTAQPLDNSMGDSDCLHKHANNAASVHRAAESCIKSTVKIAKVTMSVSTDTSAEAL
Protocol: (§1) In short, pellets were thawed on ice, combined in a 40 ml glass Dounce homogenizer and homogenized in 20 ml of cold buffer (50 mM HEPES at pH 7.4, 3 mM MgCl2, and 1 mM EGTA) using 10 strokes. Homogenates were then centrifuged at 40,000 × g for 10 min at 4°C. After discarding the supernatant, pellets were homogenized and centrifuged twice more. Final pellets were re-suspended in ice-cold 50 mM HEPES, pH 7.4, aliquoted and stored at -80°C for future use. Protein concentration was determined the same day, prior to freezing, using BCA^TM Protein Assay (Thermo Fisher Scientific, Waltham, MA, USA).
The final volume of each sample was 1 ml, containing 50 mM Tris-HCl buffer (pH 7.4), 0.05% bovine serum albumin, 5 mM MgCl2, increasing concentrations of non-radioactive competing SERM ligands, and either 100 μg of CHO-hCB1 or 50 μg of CHO-hCB2 membrane homogenates. […] Each sample condition was performed in triplicate and allowed to reach equilibrium at room temperature for 90 min. Reactions were terminated by rapid vacuum filtration through Whatman GF/B glass fiber filters (Brandel, Inc.), followed by four 4 ml washes of ice-cold filtration buffer (50 mM Tris at pH 7.4 and 0.05% BSA). Filter punches of individual samples were placed in scintillation vials containing 4 mls of ScintiverseTM BD cocktail scintillation fluid (Fisher Scientific, Pittsburg, PA, USA). Final counts were determined using liquid scintillation spectrophotometry (Tri Carb 2100 TR Liquid Scintillation Analyzer, Packard Instrument Company, Meriden, CT, USA) after overnight incubation.
(§2) Statistical analyses were conducted by utilizing GraphPad Prism v6.0g (GraphPad Software, Inc.; San Diego, CA, USA). IC50 values from competition receptor binding curves were derived by non-linear regression. […] Non-linear regression analysis of concentration-effect curves was also used to determine potency (ED50 or IC50) and efficacy (Emax or Imax) for modulation of GTPγS and adenylyl cyclase activity, respectively. All IC50, EC50, Ki, and Kb values were converted to pEC50, pIC50, pKi, and pKb values in order to permit use of parametric statistical analyses. For all experiments comparing three or more values, an one-way ANOVA was employed, followed by Dunnett’s or Tukey’s post hoc tests. For comparisons of two values, an unpaired t-test was utilized. To determine significant radioligand displacement or modulation of G-protein activity compared to basal levels, a one-sample t-test was employed.
For initial comparison of potential SERM binding to CBRs, 14 commercially available compounds from 5 structurally distinct classes (Figure 1) were subjected to a radioligand binding screen (Figure 2).

[2] = molecular target: T1, human cannabinoid type-1 receptors (hCB1); test: [35S]GTPγS binding, CHO-hCB1 membranes; type: biochemical; conditions: for IMAX, GTPγS Binding (% Basal) CHO-hCB1: maximal reduction of basal G-protein activity
Protocol: as §1
(§3) Non-specific binding was defined by radioactivity remaining in the presence of 10 μM of non-radioactive GTPγS. All reactions were incubated for 30 min at 30°C, terminated by filtration through Whatman GF/B glass fiber filters (Brandel, Inc.) and followed by four 4 ml washes of ice cold filtration buffer (50 mM HEPES, pH 7.4) containing 0.1% bovine serum albumin. Filter punches of individual samples were placed in scintillation vials containing 4 mls of ScintiverseTM BD cocktail scintillation fluid (Fisher Scientific, Pittsburg, PA, USA). Final counts were determined using liquid scintillation spectrophotometry (Tri Carb 2100 TR Liquid Scintillation Analyzer, Packard Instrument Company, Meriden, CT, USA) after overnight incubation.
as §2
(§4) CBRs are coupled to Gi/Go type G-proteins. Therefore, binding of agonists to CBRs leads to G-protein activation, antagonists produce no effect, and inverse agonists reduce basal G-protein activity produced by constitutively active receptors. SERMs were screened by examining the ability of a single receptor saturating concentration (10 μM) to modulate G-protein activity in membranes prepared from CHO-hCB1 and CHO-hCB2 cells. G-protein activation was quantified using employing [^35S]GTPγS, a non-hydrolyzable analog of GTP, that irreversibly binds to the G-proteins when activated.

[3] = molecular target: T2, human cannabinoid type-2 receptors (hCB2) (Homo sapiens, UniProt P34972); test: [35S]GTPγS binding, CHO-hCB2 membranes; type: biochemical; conditions: for IMAX, GTPγS Binding (% Basal) CHO-hCB2: maximal reduction of basal G-protein activity
T2 construct: expressed in transfected cells; host or cells: CHO cells (CHO-hCB2), membranes or intact cells
T2 sequence (P34972 whole entry): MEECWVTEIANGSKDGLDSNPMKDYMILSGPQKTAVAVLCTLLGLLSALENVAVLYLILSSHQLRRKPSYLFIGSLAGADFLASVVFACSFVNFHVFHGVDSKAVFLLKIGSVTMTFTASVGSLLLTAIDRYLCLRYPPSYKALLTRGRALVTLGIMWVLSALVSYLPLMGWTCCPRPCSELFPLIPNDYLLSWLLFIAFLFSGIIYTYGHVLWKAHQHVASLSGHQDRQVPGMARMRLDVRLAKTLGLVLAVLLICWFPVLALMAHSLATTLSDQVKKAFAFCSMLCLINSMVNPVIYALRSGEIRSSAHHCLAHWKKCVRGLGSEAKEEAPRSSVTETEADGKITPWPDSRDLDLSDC
Protocol: as §1, §3, §2, §4

[4] = molecular target: T3, human mu opioid receptors (hMOR) (Homo sapiens, UniProt P35372); test: [35S]GTPγS binding, CHO-hMOR membranes (control devoid of CBRs); type: biochemical; conditions: 10 μM
T3 construct: expressed in transfected cells; host or cells: CHO cells (CHO-hMOR), membranes or intact cells
T3 sequence (P35372 whole entry): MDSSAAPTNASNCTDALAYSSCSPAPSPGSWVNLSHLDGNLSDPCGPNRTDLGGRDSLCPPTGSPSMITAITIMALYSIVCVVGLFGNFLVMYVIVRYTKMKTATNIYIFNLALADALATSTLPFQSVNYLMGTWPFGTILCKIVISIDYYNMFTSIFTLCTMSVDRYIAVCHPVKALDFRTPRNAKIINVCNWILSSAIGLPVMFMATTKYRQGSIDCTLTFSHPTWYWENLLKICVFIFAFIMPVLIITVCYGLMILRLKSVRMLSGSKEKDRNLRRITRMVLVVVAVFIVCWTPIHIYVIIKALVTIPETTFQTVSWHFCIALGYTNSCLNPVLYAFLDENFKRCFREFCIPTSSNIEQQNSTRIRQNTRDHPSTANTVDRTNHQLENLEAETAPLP
Protocol: as §3

[5] = molecular target: T1, human cannabinoid type-1 receptors (hCB1); test: Antagonism of CP-55,940 inhibition of adenylyl cyclase, intact CHO-hCB1 cells; type: cell-based; conditions: for IMAX of CP-55,940 after pre-incubation with the drug: CHO-hCB1 cells, pre-incubation 30 min: OSP, NAF, BAZ 10 μM, RAL 2 μM, AM-281 1 μM
Protocol: (§5) Briefly, cells cultured between passages 4 and 15 were seeded into 24-well plates at a concentration of 6.5 million cells per plate and incubated overnight in a humidified incubator maintained at 37°C and 5% CO2. Growth media was removed the next day and replaced with media containing […] [^3H]adenine, 0.9g/L NaCl, and 0.5 mM isobutyl-methyl-xanthine (IBMX) for 2–3 h. Radioactive media was then removed and each well treated with 0.5 ml of varying concentrations of SERM compounds in a Krebs-Ringer-HEPES solution (10 mM HEPES, 110 mM NaCl, 25 mM Glucose, 55 mM Sucrose, 5 mM KCl, 1 mM MgCl2, 1.8 mM CaCl2, pH 7.4) containing 0.5 mM IBMX and 10 μM forskolin. Plates were then floated in a 37°C water bath for 15 min before reactions were terminated by addition of 50 μL of 2.2 N HCl to each well.
(§6) Reactions were then terminated by adding 50 μL of 2.2 N HCl to each well. [^3H]cAMP was isolated using alumina column chromatography and radioactivity quantified following addition of 10 mls of scintiverseTM BD cocktail scintillation fluid (Fisher Scientific, Pittsburg, PA, USA) by liquid scintillation spectrophotometry (Tri Carb 2100 TR Liquid Scintillation Analyzer, Packard Instrument Company, Meriden, CT, USA).
as §2
(§7) IC50 and Kb values were converted to pIC50 and pKb values (pIC50 = -Log[IC50] or pKb = -Log[Kb], respectively) to allow use of parametric statistics for comparison.

[6] = molecular target: T2, human cannabinoid type-2 receptors (hCB2); test: Antagonism of CP-55,940 inhibition of adenylyl cyclase, intact CHO-hCB2 cells; type: cell-based; conditions: for IMAX of CP-55,940 after pre-incubation with the drug / type of antagonism at hCB2Rs: CHO-hCB2 cells; for IMAX of CP-55,940 after pre-incubation with the drug: pre-incubation 30 min: OSP, NAF 10 μM, RAL, BAZ 2 μM, AM-630 1 μM; for type of antagonism at hCB2Rs: CP-55,940 inhibition of adenylyl cyclase
Protocol: as §5, §6, §2, §7

[7] = molecular target: T4, human mu opioid receptors (CHO-hMOR cells) (Homo sapiens, UniProt P35372); test: Adenylyl cyclase assay, CHO-hMOR cells (control not expressing hCB2Rs); type: cell-based; conditions: 10 μM
T4 construct: expressed in transfected cells; host or cells: CHO cells (CHO-hMOR), membranes or intact cells
T4 sequence (P35372 whole entry): as above

[8] = reduction of basal G-protein activity, CHO-hCB2 membranes, read-out: IC50, GTPγS Binding CHO-hCB2

Structure (SMILES)	IMAX, GTPγS Binding (% Basal) CHO-hCB1 [2]	IMAX, GTPγS Binding (% Basal) CHO-hCB2 [3]	IC50 [3, 8]	IMAX of CP-55,940 after pre-incubation with the drug [5]	IMAX of CP-55,940 after pre-incubation with the drug [6]	type of antagonism at hCB2Rs [6]	other results
OCCOc1ccc(/C(=C(/CCCl)c2ccccc2)c2ccccc2)cc1 [OSP, ospemifene]	30.3 ± 2.0^a %	39.7 ± 2.4^a,∗∗ %	0.558 µM	43.8 ± 2.7%	31.7 ± 2.3%	surmountable antagonists	Ki [1]: 0.753 µM; displacement of [3H]CP-55,940 from hCB1Rs ([1]; single 1 μM concentration, 0.2 nM [3H]CP-55,940, CHO-hCB1): approximately 50%; IC50 [2]: 0.17 µM; reduction of basal G-protein activity, hCB1Rs ([2]; CHO-hCB1 membranes, 10 μM): ~30%; reduction of G-protein activity, hCB2Rs ([3]; CHO-hCB2 membranes, 10 μM): ~30%; decrease in basal G-protein activity, CHO-hMOR [4]: 11%; Kb [5]: 0.173 µM; Kb [6]: 1.26 µM
O=C(c1ccc(OCCN2CCCCC2)cc1)c1c(-c2ccc(O)cc2)sc2cc(O)ccc12 [RAL, raloxifene]		34.3 ± 2.2^b,∗∗ %	0.0871 µM		33.0 ± 1.3%	surmountable antagonists	Kb ([6]; read-out: Kb (antagonist dissociation constant), CHO-hCB2): 0.0665 µM
Cc1c(-c2ccc(O)cc2)n(Cc2ccc(OCCN3CCCCCC3)cc2)c2ccc(O)cc12 [BAZ, bazedoxifene]		34.0 ± 1.0^b,∗ %	0.0716 µM		28.8 ± 3.0^∗∗ %	insurmountable antagonist	effect on basal cAMP levels, CHO-hMOR cells [7]: only slightly altered
COc1ccc2c(c1)CCC(c1ccccc1)=C2c1ccc(OCCN2CCCC2)cc1 [NAF, nafoxidine]	31.7 ± 1.5^a %	38.7 ± 1.2^a,b,∗∗ %		38.3 ± 1.7%	32.3 ± 2.3%	surmountable antagonists	Ki ([1]; CHO-hCB1 membranes, Cheng-Prusoff from IC50): 0.957 µM; Selectivity (CB1/CB2) ([1]; ratio of Ki hCB1 / Ki hCB2): 0.74; IC50 ([2]; reduction of basal G-protein activity, CHO-hCB1 membranes, read-out: IC50, GTPγS Binding CHO-hCB1): 0.524 µM; IC50 ([3]; CHO-hCB2 membranes, mean ± SEM, read-out: pIC50, GTPγS Binding CHO-hCB2 (converted)): 0.344 µM; Kb ([5]; read-out: Kb (antagonist dissociation constant), CHO-hCB1): 1.16 µM; Kb ([6]; intact CHO-hCB2 cells, mean ± SEM, read-out: pKb, CHO-hCB2 (converted)): 0.337 µM
